Source: ChEMBL document CHEMBL3352542, “Synthesis, biological evaluation and molecular modeling study of 2-(1,3,4-thiadiazolyl-thio and 4-methyl-thiazolyl-thio)-quinazolin-4-ones as a new class of DHFR inhibitors” (Bioorg Med Chem Lett, 2014)
Calls of active or inactive are those of the source. No cut-off for these calls is given here.

Experiments:
[1] = Growth inhibition of human RPMI8226 cells at 10 uM after 48 hrs; type: functional; conditions: RPMI-8226, 48 h, read-out: GI
[2] = Growth inhibition of human UACC62 cells at 10 uM after 48 hrs; type: functional; conditions: UACC-62, 48 h, read-out: GI
KM12 = assay: Growth inhibition of human KM12 cells at 10 uM after 48 hrs; type: functional; conditions: KM12, 48 h, read-out: GI
[3] = Growth inhibition of human MOLT4 cells at 10 uM after 48 hrs; type: functional; conditions: MOLT-4, 48 h, read-out: GI
NCI-H226 = assay: Growth inhibition of human NCI-H226 cells at 10 uM after 48 hrs; type: functional; conditions: NCI-H226, 48 h, read-out: GI
UO-31 = assay: (§1) Growth inhibition of human UO31 cells at 10 uM after 48 hrs; type: functional
SK-MEL-5 = assay: Growth inhibition of human SK-MEL-5 cells at 10 uM after 48 hrs; type: functional; conditions: SK-MEL-5, 48 h, read-out: GI
Escherichia coli = assay: Antimicrobial activity against Escherichia coli assessed as inhibition zone at 200 ug/disk after 24 hrs by disc-diffusion method; type: functional; conditions: read-out: IZ
A498 = assay: Growth inhibition of human A498 cells at 10 uM after 48 hrs; type: functional; conditions: A498, 48 h, read-out: GI
CCRF-CEM = assay: Growth inhibition of human CCRF-CEM cells at 10 uM after 48 hrs; type: functional; conditions: read-out: GI
MDA-MB-468 = assay: Growth inhibition of human MDA-MB-468 cells at 10 uM after 48 hrs; type: functional; conditions: MDA-MB-468, 48 h, read-out: GI
T47D = assay: Growth inhibition of human T47D cells at 10 uM after 48 hrs; type: functional; conditions: read-out: GI
MCF7 = assay: Growth inhibition of human MCF7 cells at 10 uM after 48 hrs; type: functional; conditions: MCF7, 48 h, read-out: GI
[4] = Growth inhibition of human PC3 cells at 10 uM after 48 hrs; type: functional; conditions: PC-3, 48 h, read-out: GI
[5] = Growth inhibition of human RXF393 cells at 10 uM after 48 hrs; type: functional; conditions: RXF 393, 48 h, read-out: GI
[6] = Growth inhibition of human HCT15 cells at 10 uM after 48 hrs; type: functional; conditions: HCT-15, 48 h, read-out: GI
Staphylococcus aureus = assay: Antimicrobial activity against Staphylococcus aureus assessed as inhibition zone at 200 ug/disk after 24 hrs by disc-diffusion method; type: functional; conditions: read-out: IZ
Candida albicans = assay: Antimicrobial activity against Candida albicans assessed as inhibition zone at 200 ug/disk after 24 hrs by disc-diffusion method; type: functional; conditions: read-out: IZ
Bacillus subtilis = assay: Antimicrobial activity against Bacillus subtilis assessed as inhibition zone at 200 ug/disk after 24 hrs by disc-diffusion method; type: functional; conditions: read-out: IZ
NCI-H522 = assay: Growth inhibition of human NCI-H522 cells at 10 uM after 48 hrs; type: functional
A549 = assay: Growth inhibition of human A549 cells at 10 uM after 48 hrs; type: functional; conditions: A549, 48 h, read-out: GI
Pseudomonas aeruginosa = assay: Antimicrobial activity against Pseudomonas aeruginosa assessed as inhibition zone at 200 ug/disk after 24 hrs by disc-diffusion method; type: functional; conditions: read-out: IZ
HT-29 = assay: Growth inhibition of human HT-29 cells at 10 uM after 48 hrs; type: functional; conditions: HT-29, 48 h, read-out: GI
K562 = assay: Growth inhibition of human K562 cells at 10 uM after 48 hrs; type: functional; conditions: K562, 48 h, read-out: GI
[7] = Growth inhibition of human HCT116 cells at 10 uM after 48 hrs; type: functional; conditions: HCT-116, 48 h, read-out: GI
Dihydrofolate reductase = biological target: T1, Dihydrofolate reductase (Bos taurus, UniProt P00376); assay: Inhibition of bovine liver DHFR
T1 sequence (P00376 whole entry): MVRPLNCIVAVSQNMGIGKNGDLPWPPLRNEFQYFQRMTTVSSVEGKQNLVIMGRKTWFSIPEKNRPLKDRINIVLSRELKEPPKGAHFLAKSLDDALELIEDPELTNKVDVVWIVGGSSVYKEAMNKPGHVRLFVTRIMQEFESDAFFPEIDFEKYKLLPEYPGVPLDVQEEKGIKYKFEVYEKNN

HL-60(TB) = assay: Growth inhibition of human HL-60(TB) cells at 10 uM after 48 hrs; type: functional; conditions: HL-60, 48 h, read-out: GI
[8] = Growth inhibition of human OVCAR4 cells at 10 uM after 48 hrs; type: functional; conditions: OVCAR-4, 48 h, read-out: GI
SR = assay: Growth inhibition of human SR cells at 10 uM after 48 hrs; type: functional; conditions: read-out: GI
Malme-3M = assay: Growth inhibition of human MALME-3M cells at 10 uM after 48 hrs; type: functional; conditions: read-out: GI
[9] = as §1; type: functional; conditions: UO-31, 48 h, read-out: GI
NCI-H23 = assay: Growth inhibition of human NCI-H23 cells at 10 uM after 48 hrs; type: functional; conditions: NCI-H23, 48 h, read-out: GI
[10] = Growth inhibition of human SF295 cells at 10 uM after 48 hrs; type: functional; conditions: SF-295, 48 h, read-out: GI
CAKI-1 = assay: Growth inhibition of human CAKI-1 cells at 10 uM after 48 hrs; type: functional; conditions: CAKI-1, 48 h, read-out: GI
[11] = Growth inhibition of human HOP92 cells at 10 uM after 48 hrs; type: functional; conditions: HOP-92, 48 h, read-out: GI

Work on `COc1cc2nc(Sc3nnc(N)s3)n(-c3ccc(Oc4ccccc4)cc3)c(=O)c2cc1OC` yielded an inhibition of growth at 10 µM [1] of 43.7%, an inhibition of growth at 10 µM [2] of 22.1% and an inhibition of growth at 10 µM (KM12) of 20.7%. The inhibition of growth at 10 µM [3] was 29.6%, the inhibition of growth at 10 µM (NCI-H226) was 13.4% and the “growth inhibition (GI)” value (UO-31) was “inactive”. The inhibition of growth at 10 µM (SK-MEL-5) was 28.2%, the zone of inhibition at 200 µg/disc (Escherichia coli) was 8 mm and the inhibition of growth at 10 µM (A498) was 19.3%. For the same compound, the inhibition of growth at 10 µM (CCRF-CEM) was 11.2%, the inhibition of growth at 10 µM (MDA-MB-468) was 22.6% and the inhibition of growth at 10 µM (T47D) was 38.4%. It also gave an inhibition of growth at 10 µM (MCF7) of 14.8%, an inhibition of growth at 10 µM [4] of 23.2% and an inhibition of growth at 10 µM [5] of 10.7%. The inhibition of growth at 10 µM [6] was 21.4%, the zone of inhibition at 200 µg/disc (Staphylococcus aureus) was 8 mm and the zone of inhibition at 200 µg/disc (Candida albicans) was 8 mm. The zone of inhibition at 200 µg/disc (Bacillus subtilis) was 8 mm, the “growth inhibition (GI)” value (NCI-H522) was “inactive” and the inhibition of growth at 10 µM (A549) was 15.2%. The zone of inhibition at 200 µg/disc (Pseudomonas aeruginosa) was 8 mm, the inhibition of growth at 10 µM (HT-29) was 17.6% and the inhibition of growth at 10 µM (K562) was 22.5%. For the same compound, the inhibition of growth at 10 µM [7] was 11.5%, the IC50 (Dihydrofolate reductase) was 0.6 µM and the inhibition of growth at 10 µM (HL-60(TB)) was 11.2%. For the same compound, the inhibition of growth at 10 µM [8] was 34.6% and the inhibition of growth at 10 µM (SR) was 57.3%.
Work on `Nc1nnc(Sc2nc3ccc(Cl)cc3c(=O)n2Cc2ccccc2)s1` yielded an inhibition of growth at 10 µM [1] of 17.3%, an inhibition of growth at 10 µM [2] of 17.5% and an inhibition of growth at 10 µM [3] of 16.8%. For the same compound, the inhibition of growth at 10 µM (Malme-3M) was 19.2%, the inhibition of growth at 10 µM [9] was 27.2% and the zone of inhibition at 200 µg/disc (Escherichia coli) was 12 mm. It also gave an inhibition of growth at 10 µM (A498) of 25.9%, an inhibition of growth at 10 µM [4] of 12.8% and a zone of inhibition at 200 µg/disc (Staphylococcus aureus) of 8 mm. It also gave a zone of inhibition at 200 µg/disc (Candida albicans) of 8 mm, a zone of inhibition at 200 µg/disc (Bacillus subtilis) of 8 mm and an inhibition of growth at 10 µM (NCI-H23) of 10.3%. For the same compound, the inhibition of growth at 10 µM [10] was 13.5%, the zone of inhibition at 200 µg/disc (Pseudomonas aeruginosa) was 8 mm and the inhibition of growth at 10 µM (K562) was 24.8%. For the same compound, the IC50 (Dihydrofolate reductase) was 8 µM and the inhibition of growth at 10 µM (HL-60(TB)) was 24.3%.
`COc1ccc(-n2c(Sc3sc(N)nc3C)nc3ccc(Cl)cc3c2=O)cc1` gave an inhibition of growth at 10 µM [1] of 14.6%, an inhibition of growth at 10 µM [2] of 12.6% and an inhibition of growth at 10 µM (NCI-H226) of 11.8%. It also gave an inhibition of growth at 10 µM [9] of 35.5%, a zone of inhibition at 200 µg/disc (Escherichia coli) of 8 mm and an inhibition of growth at 10 µM (A498) of 24.3%. For the same compound, the inhibition of growth at 10 µM (MCF7) was 11.5%, the inhibition of growth at 10 µM [4] was 14.7% and the inhibition of growth at 10 µM [5] was 13.4%. For the same compound, the inhibition of growth at 10 µM (CAKI-1) was 13.1%, the zone of inhibition at 200 µg/disc (Staphylococcus aureus) was 8 mm and the zone of inhibition at 200 µg/disc (Candida albicans) was 8 mm. It also gave a zone of inhibition at 200 µg/disc (Bacillus subtilis) of 8 mm, an inhibition of growth at 10 µM (NCI-H522; NCI-H522, 48 h, read-out: GI) of 10.5% and an inhibition of growth at 10 µM [11] of 24.9%. For the same compound, the inhibition of growth at 10 µM [10] was 27.6%, the zone of inhibition at 200 µg/disc (Pseudomonas aeruginosa) was 8 mm and the inhibition of growth at 10 µM (K562) was 14.3%. The IC50 (Dihydrofolate reductase) was 8 µM, the inhibition of growth at 10 µM [8] was 13.8% and the inhibition of growth at 10 µM (SR) was 13.5%.
